Like-named read-outs stand apart in the source and are kept apart here. Where no end group is shown, it is not given here.
Assays:
[1] = administered through the jugular vein; cited from earlier work
[2] = test system: Harlan Sprague Dawley rats; assay: Diuretic effects of GLP-1 or exendin in anesthetized rats (urine flow, sodium excretion, urinary potassium); assay type: in vivo, rat; settings: intravenous bolus
Protocol: In Vivo Studies in Anesthetized rats: Male, Harlan Sprague Dawley rats were housed at 23±1° C. in a 12:12 hour light:dark cycle (experiments being performed during the light cycle) and were fed and watered ad libitum (Diet LM-485, Teklad, Madison, Wis.). Animals weighing 325-375 gms were fasted for ˜20 hours prior to experimentation.
Surgical preparation: The preparation used here was as described in Young et al., (Drug Dev Res. 37:231-248, 1996), but modified by the addition of unilateral ureteral cannulation. Anesthesia was induced with 5% halothane, maintained with 2% halothane during surgery and with 0.7 to 1% thereafter. […] Colonic temperature was measured and controlled using a thermistor probe/controller (Model 73A, YSI, Yellow Springs, Ohio) and a heated operating table. Signals for mean arterial pressure were periodically sampled at 1 Hz with 12 bit precision (DataTranslation DT2801A) and recorded (Labtech Notebook).
Observations are expressed as the percent of baseline, defined as the mean of measurements made in the 30 min prior to starting peptide or vehicle infusion. Data are expressed as mean±SEM. n=5-6.
Measurements: Samples of arterial blood (160 μl) were collected periodically and samples of urine were collected every 15 min. […] Unilateral urine flow was measured by weighing the 15-minute output of the cannulated ureter. […]

[3] = cited from earlier work
[4] = test system: Harlan Sprague Dawley rats; assay: Arterial blood pressure and dP/dt in conscious rats by telemetry; assay type: in vivo, rat; settings: single intraperitoneal injection
Text: Insertion of Transducers: Male, Harlan Sprague Dawley rats were anesthetized with halothane and the abdominal aorta exposed after laparotomy. According to procedures detailed in the “Pressure Telemetry” manual from Data Sciences Inc., pressure transducer/transmitters were secured in place on the abdominal wall with the catheter tip in the abdominal aorta ˜2 mm above bifurcation. Following closure, the animals then recovered to allow at least 7 days of stable recordings. Baseline data were collected during the 7+days after surgery.
Measurement of blood pressure and dP/dt: After obtaining a stable baseline, rats received an intraperitoneal (ip) injection of GLP-1, exendin or vehicle alone (NaCl). The transmitted signals were recorded via telemetry and stored on a personal computer. Rate of pressure change, dP/dt, was calculated by software provided by Data Sciences.
GLP-1: Animals received a single intraperitoneal (ip) injection of saline or GLP-1 (100 μl), n=7-8.

In the case of “His Ala Glu Gly Thr Phe Thr Ser Asp Val Ser Ser Tyr Leu Glu Gly Gln Ala Ala Lys Glu Phe Ile Ala Trp Leu Val Lys Gly Arg-NH2 (HAEGTFTSDVSSYLEGQAAKEFIAWLVKGR-NH2; listed as Homo sapiens) [GLP-1]”, the “systolic and diastolic blood pressure and heart rate” value [1] is given as “increase”, the sodium excretion [2] is given as “increased” and the diuretic effect ([3]; intracerebroventricular administration) is given as “diuretic, antidypsogenic effect”. For the same substance, the diuretic effect ([3]; peripheral, intraperitoneal injection) was “did not have this effect”, the “cardiac contractility (dP/dt)” value [4] was “increase” and the mean arterial pressure [4] was “increase”.

Reference: patent publication US7442680B2, “Inotropic and diuretic effects of GLP-1 and GLP-1 agonists” (Amylin Pharmaceuticals, Inc., priority 1998, dated 2008)
